Measured values: the supplement of paper PMC11451515

Tested on: SEM cells
Assay: cell viability relative to DMSO control; higher = less cytotoxic
Conditions: 48 h
How it was run: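 Library compounds in DMSO were pin-dosed into 1536-well plates (5 μl) holding NOMO1 or SEM (500 cells/well) or P12-Ichikawa (1000 cells/well) leukemia cells, across an 11-point threefold series of 47 μM to 0.79 nM. Each cell line had been adapted for at least four passages in each medium. CellTiter-Glo One luminescence was read after 48 h at 37°C. Viability is the per-plate percentage relative to DMSO wells, with cell-free wells as background.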

[1] = HPLM + 10% dialyzed FBS, 0.000781 µM
[2] = HPLM + 10% dialyzed FBS, 0.00234 µM
[3] = HPLM + 10% dialyzed FBS, 0.00702 µM
[4] = HPLM + 10% dialyzed FBS, 0.0211 µM
[5] = HPLM + 10% dialyzed FBS, 0.0632 µM
[6] = HPLM + 10% dialyzed FBS, 0.19 µM
[7] = HPLM + 10% dialyzed FBS, 0.569 µM
[8] = HPLM + 10% dialyzed FBS, 1.71 µM
[9] = HPLM + 10% dialyzed FBS, 5.12 µM
[10] = HPLM + 10% dialyzed FBS, 15.4 µM
[11] = HPLM + 10% dialyzed FBS, 46.1 µM
[12] = RPMI 5 mM glucose + 10% FBS, 0.000781 µM
[13] = RPMI 5 mM glucose + 10% FBS, 0.00234 µM
[14] = RPMI 5 mM glucose + 10% FBS, 0.00702 µM
[15] = RPMI 5 mM glucose + 10% FBS, 0.0211 µM
[16] = RPMI 5 mM glucose + 10% FBS, 0.0632 µM
[17] = RPMI 5 mM glucose + 10% FBS, 0.19 µM
[18] = RPMI 5 mM glucose + 10% FBS, 0.569 µM
[19] = RPMI 5 mM glucose + 10% FBS, 1.71 µM
[20] = RPMI 5 mM glucose + 10% FBS, 5.12 µM
[21] = RPMI 5 mM glucose + 10% FBS, 15.4 µM
[22] = RPMI 5 mM glucose + 10% FBS, 46.1 µM
[23] = RPMI 5 mM glucose + 10% dialyzed FBS, 0.000781 µM
[24] = RPMI 5 mM glucose + 10% dialyzed FBS, 0.00234 µM
[25] = RPMI 5 mM glucose + 10% dialyzed FBS, 0.00702 µM
[26] = RPMI 5 mM glucose + 10% dialyzed FBS, 0.0211 µM
[27] = RPMI 5 mM glucose + 10% dialyzed FBS, 0.0632 µM
[28] = RPMI 5 mM glucose + 10% dialyzed FBS, 0.19 µM
[29] = RPMI 5 mM glucose + 10% dialyzed FBS, 0.569 µM
[30] = RPMI 5 mM glucose + 10% dialyzed FBS, 1.71 µM
[31] = RPMI 5 mM glucose + 10% dialyzed FBS, 5.12 µM
[32] = RPMI 5 mM glucose + 10% dialyzed FBS, 15.4 µM
[33] = RPMI 5 mM glucose + 10% dialyzed FBS, 46.1 µM

SMILES | cell viability [1] | cell viability [2] | cell viability [3] | cell viability [4] | cell viability [5] | cell viability [6] | cell viability [7] | cell viability [8] | cell viability [9] | cell viability [10] | cell viability [11] | cell viability [12] | cell viability [13] | cell viability [14] | cell viability [15] | cell viability [16] | cell viability [17] | cell viability [18] | cell viability [19] | cell viability [20] | cell viability [21] | cell viability [22] | cell viability [23] | cell viability [24] | cell viability [25] | cell viability [26] | cell viability [27] | cell viability [28] | cell viability [29] | cell viability [30] | cell viability [31] | cell viability [32] | cell viability [33]
C[C@]12CC[C@H]3[C@@H](CC[C@H]4NC(=O)\C=C/[C@]34C)[C@@H]1CC[C@@H]2C(=O)NC5=CC(=CC=C5C(F)(F)F)C(F)(F)F | 116% | 122% | 118% | 117% | 118% | 61.3% | 119% | 113% | 81.1% | 111% | 99.3% | 123% | 120% | 138% | 132% | 120% | 115% | 124% | 129% | 56% | 128% | 126% | 114% | 141% | 120% | 126% | 121% | 100% | 126% | 121% | 37.1% | 117% | 105%
CN1CCN(C2=Nc3cc(Cl)ccc3Nc3ccccc32)CC1 | 85.6% | 93.8% | 108% | 107% | 83.2% | 111% | 109% | 121% | 113% | 106% | 25.6% | 93% | 96.1% | 107% | 96.1% | 68.9% | 92.9% | 103% | 110% | 109% | 112% | 20.6% | 94.3% | 116% | 104% | 83.1% | 83.5% | 118% | 112% | 123% | 110% | 92% | 22.5%
CN[C@@H](C)[C@H]1[C@H](O)C[C@@]2(C)[C@@H]3CC[C@H]4C(C)(C)[C@@H](NC)CC[C@@]45C[C@@]35CC[C@]12C | 73.4% | 83.6% | 53.9% | 85.5% | 90.1% | 95.8% | 83.2% | 98.4% | 42.5% | 93.4% | 66.3% | 81.8% | 83.2% | 56% | 95.2% | 82.7% | 83.3% | 109% | 68.9% | 40% | 100% | 103% | 72.7% | 75.4% | 66.4% | 83.4% | 87.3% | 99.2% | 109% | 93.9% | 44.3% | 99.4% | 89.8%
CNc1nc(Nc2ccc(C(=O)N3CCOCC3)cc2OC)ncc1Cl |  |  |  |  |  |  |  |  |  |  |  | 107% | 120% | 101% | 104% | 113% | 107% | 70.9% | 128% | 97.9% | 92.4% | 42.2% | 123% | 106% | 118% | 111% | 120% | 114% | 78.5% | 114% | 131% | 105% | 68.8%
CCN(CC)CCOc1ccc(/C(=C(\Cl)c2ccccc2)c2ccccc2)cc1 | 111% | 118% | 128% | 114% | 118% | 116% | 134% | 125% | 129% | 112% | 101% | 90% | 94.7% | 115% | 116% | 118% | 128% | 124% | 116% | 108% | 116% | 91.6% | 104% | 124% | 125% | 127% | 142% | 144% | 127% | 126% | 123% | 126% | 118%
S=C(NCc1ccc2c(c1)OCO2)N1CCN(c2ncnc3c2oc2ccccc23)CC1 | 116% | 120% | 123% | 100% | 129% | 23.2% | 124% | 124% | 93.7% | 79.4% | 16.7% |  |  |  |  |  |  |  |  |  |  |  | 104% | 103% | 121% | 127% | 134% | 126% | 134% | 135% | 62.9% | 64.5% | 17.5%
C[C@](Cc1c[nH]c2ccccc12)(NC(=O)OC1C2CC3CC(C2)CC1C3)C(=O)NC[C@H](NC(=O)CCC(=O)O)c1ccccc1 (stereo not given in full) | 88.1% | 87.3% | 112% | 106% | 124% | 129% | 121% | 123% | 116% | 126% | 120% | 96.8% | 82.8% | 110% | 121% | 105% | 149% | 148% | 135% | 128% | 125% | 132% | 113% | 91% | 121% | 126% | 118% | 137% | 134% | 142% | 136% | 168% | 123%
O=C(c1ccc(F)cc1)N1CCC[C@H](c2nc(-c3ccc(F)cc3)no2)C1 | 119% | 120% | 122% | 112% | 128% | 114% | 111% | 104% | 102% | 105% | 115% | 119% | 111% | 124% | 121% | 128% | 117% | 111% | 112% | 99.4% | 106% | 116% | 104% | 103% | 130% | 125% | 105% | 116% | 118% | 113% | 102% | 101% | 128%
CNCC(O)c1ccc(O)cc1 (stereo not given) | 59.8% | 87.8% | 85.6% | 80.2% | 90.1% | 95.6% | 87.9% | 86.8% | 95.3% | 99.5% | 93.6% | 96.6% | 95.4% | 128% | 103% | 112% | 105% | 113% | 104% | 122% | 114% | 111% | 75.6% | 97.3% | 85.7% | 93.5% | 101% | 108% | 100% | 99.4% | 114% | 99.8% | 87.1%
Cc1nn(Cc2ccccc2Cl)c(C)c1CN(C)CC(O)COc1ccc(Cl)cc1 (stereo not given) | 95.7% | 98.1% | 103% | 119% | 100% | 102% | 109% | 104% | 105% | 41.8% | 46.9% | 100% | 109% | 93% | 112% | 110% | 116% | 107% | 114% | 105% | 41.1% | 41.4% | 109% | 91.8% | 107% | 103% | 113% | 89.9% | 97.2% | 101% | 95.8% | 39.2% | 38.3%
ClC1=CC=C(C=C1)C(C#N)C2=C(Cl)C=C(C=C2Cl)N3\N=C/C(=O)NC3=O (stereo not given) | 87.4% | 43.9% | 104% | 83.7% | 91.8% | 94.8% | 91.3% | 93.9% | 86.4% | 91.6% | 107% | 90.6% | 47.9% | 96.6% | 92.5% | 87.1% | 98.4% | 90.1% | 90.2% | 96.3% | 82.3% | 76.7% | 93.1% | 42.5% | 99.2% | 100% | 106% | 119% | 104% | 94.6% | 109% | 95.8% | 89.7%
COc1ccccc1OCC(O)COC(N)=O (stereo not given) | 84% | 102% | 104% | 110% | 118% | 114% | 109% | 106% | 119% | 111% | 89.1% | 94.6% | 110% | 85.6% | 110% | 104% | 95.8% | 112% | 106% | 120% | 97.6% | 99.4% | 108% | 109% | 103% | 123% | 106% | 121% | 136% | 93.8% | 126% | 118% | 112%
O=C(O)Cn1nnc(-c2cc(N3CCC(Oc4cc(F)ccc4Br)CC3)no2)n1 | 73.8% | 82.5% | 92.6% | 75.8% | 95.6% | 101% | 104% | 102% | 86.3% | 97.2% | 62.2% | 102% | 75.3% | 101% | 94.2% | 98% | 100% | 96.9% | 120% | 90.9% | 103% | 85.4% | 80.1% | 88.9% | 95.6% | 106% | 93.6% | 102% | 116% | 106% | 94% | 102% | 103%
COc1ccc([S+](=O)([O-])N(C(C)=O)c2ccccc2/C=C/c2cc[n+]([O-])cc2)cc1 | 124% | 122% | 133% | 141% | 125% | 125% | 124% | 55.4% | 26.1% | 26.5% | 23% | 122% | 131% | 115% | 126% | 97.1% | 103% | 111% | 39.1% | 20.3% | 18.4% | 13.4% |  |  |  |  |  |  |  |  |  |  | 
O=C1[C@H](Cc2ccc(O)cc2)N2C(=O)CCN(C(=O)NCc3ccccc3)[C@H]2CN1Cc1cccc2ccccc12 | 51.6% | 86.6% | 103% | 93.6% | 77% | 74.3% | 77.4% | 62.8% | 64.8% | 12.3% | 51.3% | 64.9% | 108% | 99.7% | 98.1% | 76.7% | 93.6% | 86.2% | 83.9% | 78.6% | 15.2% | 65.6% | 55.1% | 101% | 94.7% | 95% | 83% | 93.3% | 74.1% | 73.8% | 73.3% | 15.3% | 63.2%
CC1CNc2c(cccc2[S+](=O)([O-])N[C@@H](CCCNC(=N)N)C(=O)N2CC[C@@H](C)C[C@@H]2C(=O)O)C1 (stereo not given in full) | 88% | 94.7% | 102% | 111% | 98.2% | 117% | 117% | 124% | 106% | 128% | 95.6% | 85.6% | 90% | 96.4% | 108% | 75.7% | 103% | 113% | 97.1% | 101% | 107% | 103% | 70% | 90.1% | 101% | 97% | 99.1% | 103% | 107% | 106% | 110% | 84.7% | 108%
